molecular target: T1, SMS2 (Homo sapiens, UniProt Q8NHU3); experiment: SMS2 inhibitory activity in vitro, HPLC fluorescence quantitative detection (C6-NBD-ceramide to C6-NBD-SM); type: biochemical; conditions: 1 µM test compound; SMS2 pure enzyme; 37°C, 30 minutes; average of two measurements; read-out: Inhibition rate on SMS2 at C/µM 1
T1 construct: CAO, Yu research team, National Protein Scientific Center (Shanghai); supplied by an outside laboratory, not a commercial vendor
T1 sequence (Q8NHU3 1-365): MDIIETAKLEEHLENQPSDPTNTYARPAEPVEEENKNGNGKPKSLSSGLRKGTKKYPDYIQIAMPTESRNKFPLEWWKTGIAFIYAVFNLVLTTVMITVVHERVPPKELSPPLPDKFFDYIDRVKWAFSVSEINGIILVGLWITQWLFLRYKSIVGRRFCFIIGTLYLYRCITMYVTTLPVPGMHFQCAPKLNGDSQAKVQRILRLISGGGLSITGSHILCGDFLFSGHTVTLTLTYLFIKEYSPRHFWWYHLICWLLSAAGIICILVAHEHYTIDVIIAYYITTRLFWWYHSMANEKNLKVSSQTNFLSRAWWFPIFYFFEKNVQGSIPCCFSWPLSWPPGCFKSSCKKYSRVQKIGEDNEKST
Text: • 1. Electro-thermostatic water bath, from Shanghai Yiheng Technology Co., Ltd.); • 2. Vortex Mixer, with model ID of XW-80A, from Shanghai Jingke Industrial Co., Ltd.; • 3. […] High Performance Liquid Chromatography Agilent 1100, equipped with a quaternary pump, vacuum degassing, and FLD fluorescence detector, from Agilent Technologies, Palo Alto, CA, USA; • 5. HPLC column COSMOSIL 5C18-MS-II (4.6mm I.D. X 250mm); • 6. […] The organic solvents used in the present disclosure were purchased from Shanghai National Reagent Company, wherein methanol was pure chromatography; water was ultra-pure water which is filtrated by Milli-Q pump, deionized and ultra-filtrated with 0.22 µm membrane; and other biological consumables were purchased from domestic companies; • 8. Preparation of test compound solutions: each test compound was accurately weighed and dissolved in an appropriate volume of DMSO to prepare a 10 mmol/L stock solution. The stock solution was then diluted with an appropriate volume of DMSO to achieve the desired working concentration; • 9. SMS2 pure enzyme, DDM solution and buffer solution were provided by CAO, Yu research team from National Protein Scientific Center (Shanghai).
79 µl of the diluted enzyme solution were transferred into a 1.5 mL EP tube, 1 µl of inhibitor DMSO solution were added thereto, vortexing for 15 seconds, followed by standing at room temperature for 5 minutes. 20 µl of a mixed solution of DMPC and C6-NBD-ceramide were added, vortexing for 15 seconds, and incubated at 37°C for 30 minutes. 200 µl of anhydrous ethanol were added to quench the reaction, vortexing for 15 seconds. 200 µl of the reaction solution were taken out and stored at 4°C and avoided light for HPLC detection.
The peak area values of A(sm) and A(ceramide) in the HPLC chromatogram corresponding to C6-NBD-SM and C6-NBD-Ceramide in the DMSO group and inhibitor group samples were analyzed and recorded, and the inhibition rate of the test compound was calculated according to the following formula. Inhibition rate = (Peak area values of DMSO group−Peak area values of Inhibitor group)/(Peak area values of DMSO group) × 100% [formula]

| SMILES | inhibition at 1 µM |
| --- | --- |
| O=C(Nc1cc(Cl)cc(Cl)n1)c1sccc1OCc1ccccc1 [1-20, 3-benzyloxy-N-(4,6-Dichloropyridin-2-yl)thiophene-2-carboxamide] | 50% |
| CCOC(=O)c1ccccc1COc1ccsc1C(=O)Nc1cccnc1 [1-84] | 63% |
| Cc1ccccc1COc1ccsc1C(=O)Nc1cccnc1 [1-41, 3-(2-methylbenzyloxy)-N-(pyridin-3-yl)thiophene-2-carboxamide] | 72% |
| O=C(Nc1ccc2c(c1)Cc1ccccc1-2)c1sccc1OCc1ccccc1 [12-7, 3-(benzyloxy)-N-(9H-fluoren-2-yl)thiophene-2-carboxamide] | -16% |
| O=C(Nc1cc(F)c(F)c(F)c1)c1sccc1OCc1ccccc1 [12-10] | -30% |
| O=C(Nc1cccnc1)c1sccc1OCc1ccccc1OCCc1ccccc1 [1-70, 3-(2-(phenylethoxy)benzyloxy)-N-(pyridin-3-yl)thiophene-2-carboxamide] | 95% |
| O=C(Nc1cccnc1)c1sccc1OCc1cccc2cccnc12 [1-12, N-(pyridin-3-yl)-3-(quinolin-8-ylmethoxy)thiophene-2-carboxamide] | 68% |
| O=C(Nc1ccc2c(c1)oc1ccccc12)c1sccc1OCc1ccccc1 [12-6, 3-(benzyloxy)-N(dibenzo[b,d]furan-3-yl)thiophene-2-carboxamide] | -5% |
| O=C(Nc1cccnc1)c1sccc1OCc1ccccc1OCCCCCl [1-75, 3-(2-(4-chlorobutoxy)benzyloxy)-N-(pyridin-3-yl)thiophene-2-carboxamide] | 97% |
| O=C(Nc1cc(C(F)(F)F)ccn1)c1sccc1OCc1ccccc1 [1-5, 3-benzyloxy-N-(4-(trifluoromethyl)pyridin-2-yl)thiophene-2-carboxamide] | 47% |
| O=C(Nc1cccnc1)c1sccc1OCc1ccccc1OCCCCCCCl [1-76, 3-(2-(6-chlorohexyloxy)benzyloxy)-N-(pyridin-3-yl)thiophene-2-carboxamide] | 93% |
| CCCCCCCOc1ccc(Cl)cc1COc1ccsc1C(=O)Nc1cccnc1 [1-74, 3-(5-chloro-2-(heptyloxy)benzyloxy)-N-(pyridin-3-yl)thiophene-2-carboxamide] | 98% |
| O=C(Nc1cccnc1)c1sccc1OCc1ccccc1OC(F)(F)F [1-53, 3-(2-(trifluoromethoxy)benzyloxy)-N-(pyridin-3-yl)thiophene-2-carboxamide] | 87% |
| CCCOc1cccc(Cl)c1COc1ccsc1C(=O)Nc1cccnc1 [1-39, 3-(2-chloro-6-propoxybenzyloxy)-N-(pyridin-3-yl)thiophene-2-carboxamide] | 74% |
| O=C(Nc1cccnc1)c1sccc1OCc1cc(O)ccc1Cl [1-24, 3-(2-chloro-5-hydroxybenzyloxy)-N-(pyridin-3-yl)thiophene-2-carboxamide] | 78% |
| CCCCCCOc1c(Cl)cccc1COc1ccsc1C(=O)Nc1cccnc1 [1-80, 3-(3-chloro-2-(hexyloxy)benzyloxy)-N-(pyridin-3-yl)thiophene-2-carboxamide] | 97% |
| COc1ccc(OC)c(COc2ccsc2C(=O)Nc2cccnc2)c1 [1-98, 3-(2,5-dimethoxybenzyloxy)-N-(pyridin-3-yl)thiophene-2-carboxamide] | 50% |

same assay, conditions: 10 µM test compound; SMS2 pure enzyme; 37°C, 30 minutes; average of two measurements; read-out: Inhibition rate on SMS2 at C/µM 10

| SMILES | inhibition at 10 µM |
| --- | --- |
| CCOC(=O)CCCCCOc1ccccc1COc1ccsc1C(=O)Nc1cccnc1 [1-18, 6-(2-[(2-(pyridin-3-ylcarbamoyl)thiophene-3-yl)oxymethyl]phenoxy)ethyl hexanoate] | 97% |
| O=C(Nc1cncnc1)c1sccc1OCc1ccccc1 [1-64, 3-benzyloxy-N-(pyrimidin-5-yl)thiophene-2-carboxamide] | 51% |
| O=C(O)CCCCCOc1ccccc1COc1ccsc1C(=O)Nc1cccnc1 [1-17, 6-(2-[(2-(pyridin-3-ylcarbamoyl)thiophene-3-yl)oxymethyl]phenoxy)hexanoic acid] | 50% |
| O=C(Nc1cccnc1)c1sccc1OCc1ccccc1N1C(=O)c2ccccc2C1=O [12-5, 3-(2-(1,3-dioxoisoindolin-2-yl)benzyloxy)-N-(pyridin-3-yl)thiophene-2-carboxamide] | 4% |
| N#Cc1cccc(COc2ccsc2C(=O)Nc2cccnc2)c1 [1-51, 3-(3-cyanobenzyloxy)-N-(pyridin-3-yl)thiophene-2-carboxamide] | 60% |
| Cc1ccc(NC(=O)Cc2ccccc2COc2ccsc2C(=O)Nc2cccnc2)nc1 [12-8, 3-(2-(2-((5-methylpyridin-2-yl)amino)-2-oxoethyl)benzyloxy)-N-(pyridin-3-yl) thiophene-2-carboxamide] | 7% |
| CCCOc1ccc(OCCC)c(COc2ccsc2C(=O)Nc2cccnc2)c1 [1-93, 3-(2,5-dipropoxybenzyloxy)-N-(pyridin-3-yl)thiophene-2-carboxamide] | 50% |
| O=C(Nc1cccnc1)c1sccc1OCc1ccc(F)cc1 [1-46, 3-(4-fluorobenzyloxy)-N-(pyridin-3-yl)thiophene-2-carboxamide] | 70% |
| O=C(Nc1cnccc1Cl)c1sccc1OCc1ccccc1 [1-91, 3-benzyloxy-N-(4-chloropyridin-3-yl)thiophene-2-carboxamide] | 56% |
| CC(C)(O)COc1ccc(F)cc1COc1ccsc1C(=O)Nc1cccnc1 [1-8, 3-(5-fluoro-2-(2-hydroxy-2-methylpropoxy)benzyloxy)-N-(pyridin-3-yl)thiophene-2-carboxamide] | 56% |
| O=C(Nc1cccnc1)c1sccc1OCc1ccsc1 [1-78, 3-(thiophen-3-ylmethoxy)-N-(pyridin-3-yl)thiophene-2-carboxamide] | 59% |
| O=C(Nc1cccc(O)n1)c1sccc1OCc1ccccc1 [1-9, 3-benzyloxy-N-(6-hydroxypyridine-2-yl)thiophene-2-carboxamide] | 50% |
| Cc1ccncc1NC(=O)c1sccc1OCc1ccccc1 [1-69, 3-benzyloxy-N-(4-methylpyridin-3-yl)thiophene-2-carboxamide] | 65% |
| COc1ccc(COc2ccsc2C(=O)Nc2cccnc2)cc1 [1-56, 3-(4-methoxybenzyloxy)-N-(pyridin-3-yl)thiophene-2-carboxamide] | 50% |
| O=C(Nc1cccnc1)c1ccncc1OCc1ccccc1 [12-17, 3-benzyloxy-N-(pyridin-3-yl)pyridin-4-carboxamide] | 27% |
| CC(C)(C)C(=O)Oc1ccc(Cl)c(COc2ccsc2C(=O)Nc2cccnc2)c1 [1-23] | 53% |
| O=C(Nc1cccnc1)c1cncnc1OCc1ccccc1 [12-19, 4-benzyloxy-N-(pyridin-3-yl)pyrimidin-5-carboxamide] | 18% |
| Cc1ccc(COc2ccsc2C(=O)Nc2cccnc2)cc1 [1-42, 3-(4-methylbenzyloxy)-N-(pyridin-3-yl)thiophene-2-carboxamide] | 50% |
| O=C(Nc1cccnc1)c1cnccc1OCc1ccccc1 [12-16, 4-benzyloxy-N-(pyridin-3-yl)pyridin-3-carboxamide] | 17% |
| O=C(Nc1ccnnc1)c1sccc1OCc1ccccc1 [12-2, 3-benzyloxy-N-(pyridazin-4-yl)thiophene-2-carboxamide] | 23% |
| O=C(Nc1cccnc1)c1ncccc1OCc1ccccc1 [12-15, 3-benzyloxy-N-(pyridin-3-yl)pyridin-2-carboxamide] | 16% |

— patent publication EP4768480A1, “ALKOXY THIOPHENE ACYL ARYLAMINE COMPOUNDS AND USE THEREOF” (priority 2024, dated 2025)
